In ChEMBL document CHEMBL1201862, “PubChem BioAssay data set” (2004):
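96-well plates; 48 h exposure; 5 concentrations. Endpoints by linear interpolation between flanking doses. Not reached: highest tested concentration assigned. GI50 = concentration required for 50% inhibition of growth.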 Calls of active or inactive are those of the source. Cut-off read from the data, not from the text of the source: active = GI50 up to about 1.1 µM and inactive = higher.

Tests used:
Assay in all cases: NCI anticancer screen, dose series, 48 h
[1] = system: SF-268
[2] = system: BT-549
[3] = system: T47D
[4] = system: HOP-92
[5] = system: Malme-3M
[6] = system: HL-60
[7] = system: SNB-75
[8] = system: 786-0
[9] = system: OVCAR-5
[10] = system: U-251
[11] = system: ACHN
[12] = system: SK-MEL-5
[13] = system: MDA-MB-435
[14] = system: M14
[15] = system: SF-295
[16] = system: HCT-116
[17] = system: KM12
[18] = system: HCT-15
[19] = system: SF-539

SMILES: Cc1occc1C(=S)Nc1ccc(Cl)c(C(=O)OCC(C)C)c1
- GI50 [1]: 21.4 µM (inactive)
- GI50 [2]: 17.2 µM (inactive)
- GI50 [3]: 12.8 µM (inactive)
- GI50 [4]: 17.4 µM (inactive)
- GI50 [5]: 19.3 µM (inactive)
- GI50 [6]: 29.4 µM (inactive)
- GI50 [7]: 15.3 µM (inactive)
- GI50 [8]: 16.7 µM (inactive)
- GI50 [9]: 31.8 µM (inactive)
- GI50 [10]: 17.6 µM (inactive)
- GI50 [11]: 17.9 µM (inactive)
- GI50 [12]: 15.4 µM (inactive)
- GI50 [13]: 16.5 µM (inactive)
- GI50 [14]: 22.8 µM (inactive)
- GI50 [15]: 16.6 µM (inactive)
- GI50 [16]: 14.4 µM (inactive)
- GI50 [17]: 14.4 µM (inactive)
- GI50 [18]: 16.9 µM
- GI50 [19]: 22.3 µM (inactive)

SMILES: CC1=CC(C)C/C=C/C2C3OC3(C)C(C)C3C(Cc4c[nH]c5ccccc45)NC(=O)C23C(=O)C=CC(=O)C1O (centres undefined)
- GI50 [1]: 15.1 µM (inactive)
- GI50 [2]: 4.56 µM (inactive)
- GI50 [3]: 1.65 µM (inactive)
- GI50 [4]: 0.9 µM (active)
- GI50 [5]: 1.56 µM (inactive)
- GI50 [6]: 1.61 µM (inactive)
- GI50 [7]: 0.728 µM (active)
- GI50 [8]: 3.25 µM (inactive)
- GI50 [9]: 12.5 µM (inactive)
- GI50 [10]: 16.4 µM (inactive)
- GI50 [11]: 1.35 µM (inactive)
- GI50 [12]: 10.7 µM (inactive)
- GI50 [13]: 17.9 µM (inactive)
- GI50 [14]: 3.57 µM (inactive)
- GI50 [15]: 11.9 µM (inactive)
- GI50 [16]: 2.95 µM (inactive)
- GI50 [17]: 15.2 µM (inactive)
- GI50 [18]: 2.26 µM
- GI50 [19]: 6.97 µM (inactive)

SMILES: O=C1C(Cl)=C(Cl)C(=O)C2=C1C1c3ccccc3C2c2ccccc21
- GI50 [1]: > 100 µM (inactive)
- GI50 [2]: 14.8 µM (inactive)
- GI50 [3]: 25.3 µM (inactive)
- GI50 [4]: 19.5 µM (inactive)
- GI50 [5]: 24 µM (inactive)
- GI50 [6]: 26.2 µM (inactive)
- GI50 [7]: > 100 µM (inactive)
- GI50 [8]: 22.3 µM (inactive)
- GI50 [9]: > 100 µM (inactive)
- GI50 [10]: 20.9 µM (inactive)
- GI50 [11]: 43.2 µM (inactive)
- GI50 [12]: > 100 µM (inactive)
- GI50 [13]: 77.4 µM (inactive)
- GI50 [14]: 62.7 µM (inactive)
- GI50 [15]: 41.5 µM (inactive)
- GI50 [16]: 55.3 µM (inactive)
- GI50 [17]: 59 µM (inactive)
- GI50 [18]: 39.3 µM
- GI50 [19]: 31.3 µM (inactive)

SMILES: CC1=NNC(=O)C1C1CC(c2c[nH]c3ccccc23)=NN=C1Cl (centres undefined)
- GI50 [1]: 55.6 µM (inactive)
- GI50 [2]: 37 µM (inactive)
- GI50 [3]: 36.2 µM (inactive)
- GI50 [4]: > 100 µM (inactive)
- GI50 [5]: > 100 µM (inactive)
- GI50 [6]: 20 µM (inactive)
- GI50 [7]: 75 µM (inactive)
- GI50 [8]: 49.9 µM (inactive)
- GI50 [9]: > 100 µM (inactive)
- GI50 [10]: 43.6 µM (inactive)
- GI50 [11]: 86.1 µM (inactive)
- GI50 [12]: 42.8 µM (inactive)
- GI50 [13]: 48.9 µM (inactive)
- GI50 [14]: 53.5 µM (inactive)
- GI50 [15]: 53.1 µM (inactive)
- GI50 [16]: 44.3 µM (inactive)
- GI50 [17]: 21.9 µM (inactive)
- GI50 [18]: 35.8 µM
- GI50 [19]: 55.6 µM (inactive)

SMILES: COc1cc(C=C2C(=O)NC(=S)NC2=O)cc(OC)c1OC
- GI50 [1]: > 100 µM (inactive)
- GI50 [2]: > 100 µM (inactive)
- GI50 [3]: > 100 µM (inactive)
- GI50 [4]: > 100 µM (inactive)
- GI50 [5]: > 100 µM (inactive)
- GI50 [6]: > 100 µM (inactive)
- GI50 [7]: 60.7 µM (inactive)
- GI50 [8]: > 100 µM (inactive)
- GI50 [9]: > 100 µM (inactive)
- GI50 [10]: > 100 µM (inactive)
- GI50 [11]: > 100 µM (inactive)
- GI50 [12]: > 100 µM (inactive)
- GI50 [13]: > 100 µM (inactive)
- GI50 [14]: > 100 µM (inactive)
- GI50 [15]: > 100 µM (inactive)
- GI50 [16]: > 100 µM (inactive)
- GI50 [17]: > 100 µM (inactive)
- GI50 [18]: > 100 µM
- GI50 [19]: > 100 µM (inactive)

SMILES: O=C(/C=N/O)Nc1cc(Cl)c(Cl)cc1Cl
- GI50 [1]: 33.3 µM (inactive)
- GI50 [2]: 27.2 µM (inactive)
- GI50 [3]: 16.5 µM (inactive)
- GI50 [4]: 26.9 µM (inactive)
- GI50 [5]: 35.7 µM (inactive)
- GI50 [6]: 18.7 µM (inactive)
- GI50 [7]: 20.7 µM (inactive)
- GI50 [8]: 37.4 µM (inactive)
- GI50 [9]: 42.1 µM (inactive)
- GI50 [10]: 29.2 µM (inactive)
- GI50 [11]: 29.9 µM (inactive)
- GI50 [12]: 17.7 µM (inactive)
- GI50 [13]: 23 µM (inactive)
- GI50 [14]: 34.4 µM (inactive)
- GI50 [15]: 27 µM (inactive)
- GI50 [16]: 37.1 µM (inactive)
- GI50 [17]: 26.5 µM (inactive)
- GI50 [18]: 31.4 µM
- GI50 [19]: 31.6 µM (inactive)
